Experimental data taken from US20150164762A1, “USE OF ETHANOLAMINE PHOSPHATE” (priority 2012, published 2015).

Tested on: BEAS-2B
Test: Comprehensive gene expression analysis with Whole Human Genome DNA microarray after EP treatment
Format: cell-based
Method: Cells of the established normal human airway epithelial cell line BEAS-2B were used in the experiment. These cells were expansively cultured in 10% FBS RPMI-1640, and seeded at a density of 1×10^5/cm^2 on a 24-well plate. After 24 hours 0.1% FBS RPMI-1640 was substituted, and EP was administered to a final concentration of 0 or 1 mM (n=4). After 24 hours, the cells were used as the DNA microarray samples. RNA was extracted using a QIAGEN RNeasy Mini Kit. The DNA microarray test was performed using a Whole Human Genome DNA microarray 4×44K (Agilent), and the necessary labeling reagents and the like for the DNA microarray test were all from Agilent. The DNA microarray test data were analyzed statistically with GeneSpring (Agilent) dedicated analysis software, and gene function analysis (Gene Ontology (GO) analysis) was performed based on differential expression. The purpose of the GO analysis is to determine stochastically the degree to which gene sets with statistically significant differential expression correspond to known functional classification gene sets. […] The p-value is calculated according to the following formula.

[1] = probe A_23_P149529, 1 mM EP, 24 h
[2] = probe A_23_P151294, NM_000619, EP vs control
[3] = probe A_23_P151294, 1 mM EP, 24 h
[4] = probe A_23_P151649, NM_080649, EP vs control
[5] = probe A_23_P156310, 1 mM EP, 24 h
[6] = probe A_23_P159210, 1 mM EP, 24 h
[7] = probe A_23_P160025, 1 mM EP, 24 h
[8] = probe A_23_P163787, 1 mM EP, 24 h
[9] = probe A_23_P167096, 1 mM EP, 24 h
[10] = probe A_23_P167585, NM_005260, EP vs control
[11] = probe A_23_P168882, 1 mM EP, 24 h
[12] = probe A_23_P168909, 1 mM EP, 24 h
[13] = probe A_23_P169030, 1 mM EP, 24 h
[14] = probe A_23_P169738, 1 mM EP, 24 h
[15] = probe A_23_P201808, 1 mM EP, 24 h
[16] = probe A_23_P202978, 1 mM EP, 24 h
[17] = probe A_23_P206077, 1 mM EP, 24 h
[18] = probe A_23_P206396, 1 mM EP, 24 h
[19] = probe A_23_P206661, NM_000903, EP vs control
[20] = probe A_23_P207003, 1 mM EP, 24 h
[21] = probe A_23_P207999, 1 mM EP, 24 h
[22] = probe A_23_P208706, 1 mM EP, 24 h
[23] = probe A_23_P209625, NM_000104, EP vs control
[24] = probe A_23_P211762, 1 mM EP, 24 h
[25] = probe A_23_P211957, 1 mM EP, 24 h
[26] = probe A_23_P213706, NM_000589, EP vs control
[27] = probe A_23_P213745, NM_004887, EP vs control
[28] = probe A_23_P214950, 1 mM EP, 24 h
[29] = probe A_23_P217866, 1 mM EP, 24 h
[30] = probe A_23_P250554, 1 mM EP, 24 h
[31] = probe A_23_P252817, 1 mM EP, 24 h
[32] = probe A_23_P253932, 1 mM EP, 24 h
[33] = probe A_23_P255653, 1 mM EP, 24 h
[34] = probe A_23_P258194, 1 mM EP, 24 h
[35] = probe A_23_P258310, NM_144651, EP vs control
[36] = probe A_23_P259071, NM_001657, EP vs control
[37] = probe A_23_P303210, 1 mM EP, 24 h

## NCCOP(=O)(O)O [EP, Ethanolamine phosphate]
[1]
  TACSTD2 expression R*: Ratio to control: 1.507 times
  TACSTD2 expression log2 [ratio]: 0.591
[2]
  IFNG gene expression, R* ratio to control: 0.611 times
  IFNG gene expression, log2 [ratio]: −0.710
[3]
  IFNG expression R*: Ratio to control: 0.611 times
  IFNG expression log2 [ratio]: −0.710
[4]
  APEX1 gene expression, R* ratio to control: 1.455 times
  APEX1 gene expression, log2 [ratio]: 0.541
[5]
  SKP2 expression R*: Ratio to control: 1.531 times
  SKP2 expression log2 [ratio]: 0.615
[6]
  CDKN1A expression R*: Ratio to control: 0.439 times
  CDKN1A expression log2 [ratio]: −1.187
[7]
  IFI16 expression R*: Ratio to control: 0.629 times
  IFI16 expression log2 [ratio]: −0.669
[8]
  MMP2 expression R*: Ratio to control: 1.578 times
  MMP2 expression log2 [ratio]: 0.658
[9]
  VEGFC expression R*: Ratio to control: 1.637 times
  VEGFC expression log2 [ratio]: 0.711
[10]
  GDF9 gene expression, R* ratio to control: 0.357 times
  GDF9 gene expression, log2 [ratio]: -1.49
[11]
  TP53INP1 expression R*: Ratio to control: 0.395 times
  TP53INP1 expression log2 [ratio]: −1.339
[12]
  ZFPM2 expression R*: Ratio to control: 1.678 times
  ZFPM2 expression log2 [ratio]: 0.746
[13]
  TNFRSF10B expression R*: Ratio to control: 0.636 times
  TNFRSF10B expression log2 [ratio]: −0.653
[14]
  SOX7 expression R: Ratio to control: 0.362 times
  SOX7 expression log2 [ratio]: −1.464
[15]
  PPAP2B expression R*: Ratio to control: 1.919 times
  PPAP2B expression log2 [ratio]: 0.941
[16]
  CASP1 expression R*: Ratio to control: 0.641 times
  CASP1 expression log2 [ratio]: −0.642
[17]
  AEN expression R*: Ratio to control: 0.420 times
  AEN expression log2 [ratio]: −1.253
[18]
  CKLF expression R*: Ratio to control: 1.601 times
  CKLF expression log2 [ratio]: 0.679
[19]
  NQO1 gene expression, R* ratio to control: 1.480 times
  NQO1 gene expression, log2 [ratio]: 0.566
[20]
  SEPT4 expression R*: Ratio to control: 0.503 times
  SEPT4 expression log2 [ratio]: −0.990
[21]
  PMAIP1 expression R: Ratio to control: 0.344 times
  PMAIP1 expression log2 [ratio]: −1.540
[22]
  BAX expression R*: Ratio to control: 0.453 times
  BAX expression log2 [ratio]: −1.143
[23]
  CYP1B1 gene expression, R* ratio to control: 1.584 times
  CYP1B1 gene expression, log2 [ratio]: 0.663
[24]
  COL8A1 expression R*: Ratio to control: 1.643 times
  COL8A1 expression log2 [ratio]: 0.716
[25]
  TGFBR2 expression R*: Ratio to control: 1.634 times
  TGFBR2 expression log2 [ratio]: 0.708
[26]
  IL4 gene expression, R* ratio to control: 0.420 times
  IL4 gene expression, log2 [ratio]: −1.251
[27]
  CXCL14 gene expression, R* ratio to control: 0.364 times
  CXCL14 gene expression, log2 [ratio]: −1.456
[28]
  PERP expression R: Ratio to control: 0.521 times
  PERP expression log2 [ratio]: −0.941
[29]
  1FI16 expression R*: Ratio to control: 0.585 times
  1FI16 expression log2 [ratio]: −0.773
[30]
  AGGF1 expression R*: Ratio to control: 1.523 times
  AGGF1 expression log2 [ratio]: 0.607
[31]
  SST expression R: Ratio to control: 0.666 times
  SST expression log2 [ratio]: −0.587
[32]
  FAIM expression R*: Ratio to control: 1.670 times
  FAIM expression log2 [ratio]: 0.740
[33]
  TNFRSF10A expression R*: Ratio to control: 0.402 times
  TNFRSF10A expression log2 [ratio]: −1.314
[34]
  A1FM3 expression R*: Ratio to control: 0.580 times
  A1FM3 expression log2 [ratio]: −0.761
[35]
  PXDNL gene expression, R* ratio to control: 2.426 times
  PXDNL gene expression, log2 [ratio]: 1.278
[36]
  AREG gene expression, R* ratio to control: 0.128 times
  AREG gene expression, log2 [ratio]: −2.969
[37]
  IKBIP expression R*: Ratio to control: 0.468 times
  IKBIP expression log2 [ratio]: −1.095
